Source: US20230312583A1, “1H-IMIDAZO [4,5-H] QUINAZOLINE COMPOUND AS NOVEL SELECTIVE FLT3 INHIBITORS” (SHENGKE PHARMACEUTICALS (JIANGSU) LTD., priority 2020, published 2023)

Experiments:
Type in all cases: biochemical
Conditions in all cases: 10 μM ATP
[1] = target: CDK2/cyclin E (Homo sapiens (Human), UniProt P24941); assay: Radiometric 33P-ATP kinase inhibition assay, CDK2/cyclin E
Description: (§1) Reactions were carried out in the presence of 10 μM ATP.
(§2) Procedures: • 1. Compounds were prepared in freshly prepared reaction buffers containing 20 mM HEPES (pH 7.5), 10 mM MgCl2, 1 mM EGTA, 0.01% Brij35, 0.02 mg/ml, BSA, 0.1 mM Na3VO4, 2 mM DTT, and 1% DMSO. • 2. […] Kinase such as 10 ng of recombinant CDK4/cyclin D1 (Life Technologies PV4204) diluted in a kinase buffer (20 mM Tris pH7.5, 10 mM MgCl2, 0.01% NP-40, 2 mM DTT), and incubated at room temperature for 30 minutes together with indicated concentration of inhibitors. • 4. Compounds in DMSO were added into the kinase reaction mixture utilizing acoustic technology (Echo550). • 5. 33P-ATP (specific activity 0.01 μCi/μl final) was added into the reaction mixture to initiate the reaction. • 6. The reaction mixture was incubated for 120 minutes at room temperature. • 7. […] Filters were extensively washed with 0.75% phosphoric acid. • 9. The radioactive phosphorylated substrate remaining on the filter paper was measured.
(§3) Kinase activity data were expressed as the percent remaining kinase activity in test samples compared to vehicle (dimethyl sulfoxide) reactions. IC50 values and curve fits were obtained using Prism4 Software (GraphPad).

[2] = target: C-Klt (Homo sapiens (Human), UniProt P10721); assay: Radiometric 33P-ATP kinase inhibition assay, C-Klt
Chain of C-Klt (P10721 26-976): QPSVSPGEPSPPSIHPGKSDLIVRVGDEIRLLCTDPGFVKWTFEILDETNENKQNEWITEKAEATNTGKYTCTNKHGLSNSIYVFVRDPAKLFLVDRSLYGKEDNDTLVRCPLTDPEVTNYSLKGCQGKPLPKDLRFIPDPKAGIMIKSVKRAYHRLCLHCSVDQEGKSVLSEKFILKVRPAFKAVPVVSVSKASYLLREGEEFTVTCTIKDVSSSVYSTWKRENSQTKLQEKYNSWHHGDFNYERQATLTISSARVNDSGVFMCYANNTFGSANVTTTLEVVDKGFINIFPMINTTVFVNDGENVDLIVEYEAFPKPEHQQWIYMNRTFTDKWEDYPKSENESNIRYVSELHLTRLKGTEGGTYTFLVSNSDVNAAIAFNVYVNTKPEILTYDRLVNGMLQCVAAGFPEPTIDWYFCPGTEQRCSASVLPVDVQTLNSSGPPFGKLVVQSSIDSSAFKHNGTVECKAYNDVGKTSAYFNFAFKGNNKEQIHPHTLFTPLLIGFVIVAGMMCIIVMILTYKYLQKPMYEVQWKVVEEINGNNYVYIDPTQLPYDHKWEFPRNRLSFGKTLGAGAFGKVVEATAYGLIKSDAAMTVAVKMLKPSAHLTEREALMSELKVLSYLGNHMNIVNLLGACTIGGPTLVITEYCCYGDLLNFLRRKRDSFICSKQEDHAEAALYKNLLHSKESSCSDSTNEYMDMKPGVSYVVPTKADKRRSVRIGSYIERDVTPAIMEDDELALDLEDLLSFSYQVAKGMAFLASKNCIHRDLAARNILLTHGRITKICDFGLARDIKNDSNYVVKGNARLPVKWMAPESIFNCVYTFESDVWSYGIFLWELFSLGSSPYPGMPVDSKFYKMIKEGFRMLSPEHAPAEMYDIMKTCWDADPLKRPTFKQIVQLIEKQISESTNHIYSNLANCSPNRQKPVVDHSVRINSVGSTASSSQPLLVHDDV
Description: as §1, §2, §3

[3] = target: CDK4/cyclin D1 (Homo sapiens (Human), UniProt P11802); assay: Radiometric 33P-ATP kinase inhibition assay, CDK4/cyclin
Chain of CDK4/cyclin D1 (P11802 whole entry): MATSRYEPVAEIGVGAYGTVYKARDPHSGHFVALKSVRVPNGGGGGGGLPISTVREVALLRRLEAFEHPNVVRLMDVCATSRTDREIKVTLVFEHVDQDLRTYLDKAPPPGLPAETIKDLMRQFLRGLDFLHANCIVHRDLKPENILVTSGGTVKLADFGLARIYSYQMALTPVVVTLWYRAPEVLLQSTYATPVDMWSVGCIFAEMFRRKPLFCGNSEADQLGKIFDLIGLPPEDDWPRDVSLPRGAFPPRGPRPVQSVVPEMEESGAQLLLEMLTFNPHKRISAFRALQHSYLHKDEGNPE
Chain of CDK4/cyclin D1 (P24385 whole entry partner): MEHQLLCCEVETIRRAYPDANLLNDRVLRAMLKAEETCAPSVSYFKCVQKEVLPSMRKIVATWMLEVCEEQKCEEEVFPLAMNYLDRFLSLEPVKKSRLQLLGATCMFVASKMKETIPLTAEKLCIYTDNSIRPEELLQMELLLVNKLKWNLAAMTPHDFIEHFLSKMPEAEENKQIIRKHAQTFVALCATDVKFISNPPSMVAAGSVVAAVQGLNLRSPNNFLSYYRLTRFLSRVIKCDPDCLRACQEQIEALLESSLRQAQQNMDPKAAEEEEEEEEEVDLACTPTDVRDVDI
Description: as §1, §2, §3

[4] = target: CDK6/cyclin D1 (Homo sapiens (Human), UniProt Q00534); assay: Radiometric 33P-ATP kinase inhibition assay, CDK6/cyclin D1
Chain of CDK6/cyclin D1 (Q00534 whole entry, species assumed): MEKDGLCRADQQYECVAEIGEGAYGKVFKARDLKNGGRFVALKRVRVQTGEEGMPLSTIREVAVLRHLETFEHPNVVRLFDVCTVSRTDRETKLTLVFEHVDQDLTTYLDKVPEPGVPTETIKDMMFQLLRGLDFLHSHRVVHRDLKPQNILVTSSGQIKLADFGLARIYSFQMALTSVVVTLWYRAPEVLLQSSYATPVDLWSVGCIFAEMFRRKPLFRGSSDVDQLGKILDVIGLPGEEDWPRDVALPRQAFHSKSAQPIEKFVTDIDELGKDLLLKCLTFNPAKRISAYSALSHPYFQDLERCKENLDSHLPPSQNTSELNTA
Chain of CDK6/cyclin D1 (P24385 whole entry partner, species assumed): as the sequence (P24385 whole entry partner) above
Description: as §1, §2, §3

[5] = target: CDK1/cyclin B (Homo sapiens (Human), UniProt P06493); assay: Radiometric 33P-ATP kinase inhibition assay, CDK1/cyclin B
Chain of CDK1/cyclin B (P06493 whole entry, species assumed): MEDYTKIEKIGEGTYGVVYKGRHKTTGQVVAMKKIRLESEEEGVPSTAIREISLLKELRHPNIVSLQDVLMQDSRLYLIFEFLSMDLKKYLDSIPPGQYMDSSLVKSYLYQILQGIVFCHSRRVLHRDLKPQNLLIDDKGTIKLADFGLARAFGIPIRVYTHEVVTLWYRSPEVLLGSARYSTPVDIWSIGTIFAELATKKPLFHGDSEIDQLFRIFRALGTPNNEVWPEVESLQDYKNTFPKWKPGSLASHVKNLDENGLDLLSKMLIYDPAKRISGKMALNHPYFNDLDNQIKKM
Chain of CDK1/cyclin B (P14635 whole entry partner, species assumed): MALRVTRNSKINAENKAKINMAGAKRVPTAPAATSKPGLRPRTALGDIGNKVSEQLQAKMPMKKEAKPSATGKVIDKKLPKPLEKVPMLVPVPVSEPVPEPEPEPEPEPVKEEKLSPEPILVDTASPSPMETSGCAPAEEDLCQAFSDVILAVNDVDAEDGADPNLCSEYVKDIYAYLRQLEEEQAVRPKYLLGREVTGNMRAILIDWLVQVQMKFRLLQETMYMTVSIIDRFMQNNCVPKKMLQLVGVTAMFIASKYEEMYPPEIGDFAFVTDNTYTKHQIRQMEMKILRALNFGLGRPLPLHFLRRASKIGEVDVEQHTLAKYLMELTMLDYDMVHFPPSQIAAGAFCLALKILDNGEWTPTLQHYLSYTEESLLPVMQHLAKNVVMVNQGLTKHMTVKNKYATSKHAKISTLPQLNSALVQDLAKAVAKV
Description: as §1, §2, §3

Compound	IC50 [1] [nM]	IC50 [2] [nM]	IC50 [3] [nM]	IC50 [4] [nM]	IC50 [5] [nM]
COc1cc(Nc2ncc3ccc4ncn(C(C)C)c4c3n2)ncc1N1CCN(C)CC1 [Compound I-1]	189	32.1	61	–	–
CCN1CCN(c2cnc(Nc3ncc4ccc5ncn(C(C)C)c5c4n3)cc2OC)CC1 [Compound I-2, N-(5-(4-ethylpiperazin-1-yl)-4-methoxypyridin-2-yl)-1-isopropyl-1H-imidazo[4,5-h]quinazolin-8-amine]	162	–	66.8	–	–
COc1cc(Nc2ncc3ccc4ncn(C(C)C)c4c3n2)ncc1N1CC2(COC2)C1 [Compound I-3]	46.9	60.6	186	–	–
COc1cc(Nc2ncc3ccc4ncn(C(C)C)c4c3n2)ncc1N1CC2(CNC2)C1 [Compound I-4]	69.5	16.6	52.9	–	–
COc1cc(Nc2ncc3ccc4ncn(C(C)C)c4c3n2)ncc1N1CCNC(C)(C)C1 [Compound I-5]	483	25.6	95	–	–
CNC1CN(c2cnc(Nc3ncc4ccc5ncn(C(C)C)c5c4n3)cc2OC)C1 [Compound I-6]	> 500	94.7	245	–	–
CCOc1cc(Nc2ncc3ccc4ncn(C(C)C)c4c3n2)ncc1N1CCN(C)CC1 [Compound I-7]	> 500	31.5	99.1	–	–
CCOc1cc(Nc2ncc3ccc4ncn(C(C)C)c4c3n2)ncc1N1CCOCC1 [Compound I-8]	> 500	89.1	> 500	–	–
CC(C)n1cnc2ccc3cnc(Nc4cc(OCCF)c(N5CC6CC(C5)N6)cn4)nc3c21 [Compound I-9]	91.1	15	39.5	22.5	–
CC(C)n1cnc2ccc3cnc(Nc4cc(OCC5CC5)c(N5CCNCC5)cn4)nc3c21 [Compound I-10]	> 500	111	292	–	451
COc1cc(Nc2ncc3ccc4ncn(C(C)C)c4c3n2)ncc1N1C2CCC1CNC2 [Compound I-11]	> 500	29.8	98.3	–	–
COc1cc(Nc2ncc3ccc4ncn(C(C)C)c4c3n2)ncc1N1CC2CCC1CN2 (stereo not shown) [Compound I-12]	301	15	66	–	–
CC#CCOc1cc(Nc2ncc3ccc4ncn(C(C)C)c4c3n2)ncc1N1CCNCC1 [Compound I-13]	–	–	109	–	–
CC(C)n1cnc2ccc3cnc(Nc4cc(Oc5ccccc5)c(N5CCNCC5)cn4)nc3c21 [Compound I-14]	436	70.9	46.1	–	–
COc1cc(Nc2ncc3ccc4ncn(C(C)C)c4c3n2)ncc1NCC1COC(=O)N1C (stereo not shown) [Compound I-15]	> 500	118	267	–	–
CCOc1cc(Nc2ncc3ccc4ncn(CC)c4c3n2)ncc1N1CCN(CC)CC1 [Compound V-1, N-(4-ethoxy-5-(4-ethylpiperazin-1-yl)pyridin-2-yl)-1-ethyl-1H-imidazo[4,5-h]quinazolin-8-amine]	–	21.3	221	–	–
COc1cc(Nc2ncc3cc(C)c4ncn(C(C)C)c4c3n2)ccc1N1CCOCC1 [II-1, 1-isopropyl-N-(3-methoxy-4-morpholinophenyl)-4-methyl-1H-imidazo[4,5-h]quinazolin-8-amine]	–	75.1	–	–	–
CC(C)Oc1cc(Nc2ncc3ccc4ncn(C)c4c3n2)ncc1N1CCNCC1 [IV-1, N-(4-isopropoxy-5-(piperazin-1-yl)pyridin-2-yl)-1-methyl-1H-imidazo[4,5-h]quinazolin-8-amine]	–	137	–	–	–
COc1cc(Nc2ncc3ccc4nc(C)n(C(C)C)c4c3n2)ncc1N1CCOCC1 [VI-1, 1-isopropyl-N-(4-methoxy-5-morpholinopyridin-2-yl)-2-methyl-1H-imidazo[4,5-h]quinazolin-8-amine]	89.1	46	245	–	397
